Measured values published in article PMC2635431 (Journal of pharmaceutical sciences, 2009).

Assays:
[1] = tested on: human epidermal membrane (HEM); assay: Passive transport of corticosterone; assay type: in vitro ADME; details: CS lipoidal pathway permeability vs PBS control (Eq. 3)
[2] = tested on: human epidermal membrane (HEM); assay: Enhancer depletion and recovery of HEM barrier; assay type: in vitro ADME; details: Protocol II, enhancer depletion in PBS
[3] = tested on: human epidermal membrane (HEM); assay: Evaluation of direct enhancer treatment time on CS permeability of HEM; assay type: in vitro ADME; details: direct treatment 1, 4, 20 min; p > 0.05, t-test
[4] = experimental, from the literature; cited from earlier work
[5] = Corticosterone solubility in enhancer-PBS solution relative to PBS; details: enhancer concentration of Protocol I, 37°C

time for HEM permeability to return to the PBS control value [2] | effect of treatment time on permeability coefficients of CS [3] | SMILES | Enhancement Ratio (Emax) ([1]; Protocol III) | Enhancement Ratio (Emax) ([1]; Protocol II) | also measured
approximately 6 h | – | CCCCCCCCN1CCCC1=O [OP, 1-Octyl-2-pyrrolidinone] | 16 ± 6 | – | –
– | did not significantly affect | CCCCC(CC)COC(=O)c1ccc(N(C)C)cc1 (centres unmarked) [PADO, 2-Ethylhexyl 4-(dimethylamino) benzoate] | 3.8 ± 1.1 | 4.1 ± 0.7 | –
– | did not significantly affect | CCCCCCCCCCCO [UD, Undecan-1-ol] | – | 17 ± 2 | –
– | did not significantly affect | CCCCC(CC)COC(=O)c1ccccc1O (centres unmarked) [OS, 2-Ethylhexyl 2-hydroxybenzoate] | – | 5.0 ± 3.6 | –
less than 2 h | – | OCCOc1ccccc1 [PHE, 2-Phenoxy-1-ethanol] | – | – | –

The next lines start with the molecule.

SMILES | time for HEM permeability to return to the PBS control value [2] | effect of treatment time on permeability coefficients of CS [3] | Enhancement Ratio (Emax) ([1]; Protocol III) | Enhancement Ratio (Emax) ([1]; Protocol II) | also measured
CCCCCCCC/C=C\CCCCCCCCO [OA, (Z)-Octadec-9-en-1-ol] | – | did not significantly affect | – | 5.5 ± 1.5 | –
CCCCCCCCO [OC, 1-Octanol] | approximately 6 h | – | 18 ± 2 | – | –
COc1ccc(O)c(C(C)(C)C)c1 [BHA, 1,1-Dimethylethyl-4-methoxy phenol] | – | – | – | – | log Koct [4]: 3.14 ^b^53; CS Solubility Ratio (enhancer/PBS solution vs PBS) [5]: 1.16 ± 0.03
CCCCCCCCCCCCN1CCCC1=O [DoP, 1-Dodecyl-2-pyrrolidinone] | – | – | 14 ± 6 | – | –
CCCCCCCCCCCCCC(=O)OC(C)C [IPM, Propan-2-yl tetradecanoate] | – | did not significantly affect | 3.3 ± 1.1 | 2.8 ± 0.2 | –
